Results: patent publication US20130072472A1, “N[…] ANSOLVATES” (DemeRx, Inc., priority 2011, published 2013)
Counter-ions that a name gives are not always drawn.

How the values were obtained:
Format in all cases: physicochemical
[1] = Polymorphic conversion of solvated form on stirring in EtOH/water or heating
Description: Such a desolvation is surprising, given that it occurs upon stirring in another solvent, which comprises hydroxy groups and alkyl moieties as in MeOH. As described above, form F is a solvated polymorph that is obtained from MeOH.

[2] = Thermogravimetric analysis (TGA); conditions: for TGA sharp weight loss / onset of probable decomposition: TGA thermogram
Description: Thermogravimetric analyses were performed using a TA Instruments Q5000 IR thermogravimetric analyzer. Temperature calibration was performed using nickel and Alumel™ Each sample was placed in an aluminum pan. The sample was hermetically sealed, the lid pierced, then inserted into the TO furnace. The furnace was heated under nitrogen.

[3] = Drying of solvated forms, gravimetric weight loss and XRPD; conditions: for gravimetric weight loss: hydrochloride
Description: Two other moisture absorbing, unstable, polymorphs of noribogaine hydrochloride, Forms F and G, which had mutually similar XRPD patterns were also identified. Form G was isolated from a slurry of Form A in MeOH at ambient temperature. Material G likely contains MeOH and water, and Form F (or Form II) is likely hydrated. […] A sharp weight loss at ˜312° C. indicated likely decomposition. Both Forms G and F are contemplated to readily pick up moisture from the atmosphere.

[4] = Approximate aqueous solubility of noribogaine salt forms; conditions: water
[5] = Dynamic vapor sorption (DVS); conditions: for State of the solids after DVS sorption/desorption: post-DVS, 5 to 95 to 5% RH
Description: Dynamic vapor sorption (DVS) data were collected on a VTI SOA-100 Vapor Sorption Analyzer. NaCl and PVP were used as calibration standards. Samples were not dried prior to analysis. Sorption and desorption data were collected over a range from 5 to 95% RH at 10% RH increments under a nitrogen purge. The equilibrium criterion used for analysis was less than 0.0100% weight change in 5 minutes with a maximum equilibration time of 3 hours. Data were not corrected for the initial moisture content of the samples.

[6] = Approximate ambient-temperature solubility, solvent addition method; conditions: thermodynamic from solid
Description: The approximate ambient-temperature solubilities of noribogaine hydrochloride Form A were measured in a variety of solvents and solvent mixtures using the solvent addition method (Table 2).
The solubility of noribogaine hydrochloride ansolvate were determined as tabulated below.

## CC[C@H]1CC2C[C@H]3c4[nH]c5ccc(O)cc5c4CCN(C2)C13 [Form F, noribogaine hydrochloride]
[1]; heating
  Polymorphic form change upon heating: converts to the ansolvate form A
[1]; stirring in 9:1 ethyl alcohol and water
  Polymorphic form change upon stirring: converted to the ansolvate form A
[2]; hydrochloride
  TGA sharp weight loss / onset of probable decomposition: ~312 °C
[3]
  gravimetric weight loss: 4.1%

## CC[C@H]1CC2C[C@H]3c4[nH]c5ccc(O)cc5c4CCN(C2)C13 [Form G, noribogaine hydrochloride]
[3]
  Polymorphic form after weight loss, by XRPD: converted to Form A
[3]; listed as material G
  gravimetric weight loss: 7.95%

## CC[C@H]1CC2C[C@H]3c4[nH]c5ccc(O)cc5c4CCN(C2)C13 [HCl, Form A, noribogaine hydrochloride]
[4]; hydrochloride
  Approx. Aqueous Solubility: 1000 to 4000 µg/mL
[5]; between 5 and 95% relative humidity
  DVS weight gain/loss: approximately 0.03%
[2]; listed as Form A, hydrochloride
  TGA sharp weight loss / onset of probable decomposition: ~316 °C
[2]; prior to ~316° C.
  TGA weight loss: negligible weight loss
[6]; aqueous with cosolvent or surfactant or cyclodextrin, ACN:water 80:20, ambient temperature
  solubility: 9000 µg/mL
[6]; aqueous with cosolvent or surfactant or cyclodextrin, Acetone:water 50:50, ambient temperature
  solubility: 11000 µg/mL
[6]; aqueous with cosolvent or surfactant or cyclodextrin, TFE:water 50:50, ambient temperature
  solubility: 10000 µg/mL
[6]; organic solvent or mixture, Acetone, ambient temperature
  solubility: < 1000 µg/mL
[6]; organic solvent or mixture, CAN, ambient temperature
  solubility: < 1000 µg/mL
[6]; organic solvent or mixture, EtOAc, ambient temperature
  solubility: < 1000 µg/mL
[6]; organic solvent or mixture, EtOH, ambient temperature
  solubility: < 1000 µg/mL
[6]; organic solvent or mixture, HFIPA, ambient temperature
  solubility: 10000 µg/mL
[6]; organic solvent or mixture, MeOH, ambient temperature
  solubility: 2000 µg/mL
[6]; organic solvent or mixture, MeOH:THF 50:50, ambient temperature
  solubility: 1000 µg/mL
[6]; organic solvent or mixture, TFE, ambient temperature
  solubility: 4000 µg/mL
[6]; organic solvent or mixture, THF, ambient temperature
  solubility: < 1000 µg/mL
[6]; organic solvent or mixture, chloroform, ambient temperature
  solubility: < 1000 µg/mL
[6]; organic solvent or mixture, chloroform:EtOH 50:50, ambient temperature
  solubility: < 1000 µg/mL
[6]; organic solvent or mixture, p-dioxane, ambient temperature
  solubility: < 1000 µg/mL
[6]; Water, added all at once, stirred ~24 hours
  solubility: < 4000 µg/mL

## CC[C@H]1CC2C[C@H]3c4[nH]c5ccc(O)cc5c4CCN(C2)C13 [Phosphate, Form C, noribogaine phosphate]
[4]
  Approx. Aqueous Solubility: 23000 µg/mL
[5]; between 5 and 95% RH
  DVS weight gain: approximately 3.3 wt %
[5]; equilibration to 5% RH
  DVS weight loss upon equilibration: approximately 1 wt %
[5]
  State of the solids after DVS sorption/desorption: remained Form C
[2]
  TGA sharp weight loss / onset of probable decomposition: 241 °C
[2]; from 30 to 140° C.
  TGA weight loss: approximately 1.6%

## CC[C@H]1CC2C[C@H]3c4[nH]c5ccc(O)cc5c4CCN(C2)C13 [Sulfate, Form D, noribogaine sulfate ansolvate]
[4]
  Approx. Aqueous Solubility: >80000 µg/mL
[5]; between 75 and 95% RH
  DVS weight gain: approximately 26 wt %
[5]; listed as sulfate salt
  State of the solids after DVS sorption/desorption: deliquesced
[5]; up to 75% RH
  DVS weight gain: about 0.7 wt %
[2]
  TGA sharp weight loss / onset of probable decomposition: approximately 274 °C
[2]; from approximately 160 to 245° C.
  TGA weight loss: 4.9 wt %

## CC[C@H]1CC2C[C@H]3c4[nH]c5ccc(O)cc5c4CCN(C2)C13 [Tosylate, Form B, tosylate salt of noribogaine]
[4]
  Approx. Aqueous Solubility: 3000 µg/mL
